From ChEMBL document CHEMBL1201862, “PubChem BioAssay data set” (2004)
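These data come from cells grown in 96-well plates and exposed to compound for 48 hours at five concentrations. Here, GI50 denotes the concentration required for 50% inhibition of growth.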 The source made the active and inactive calls. Rule as the data show it: active = GI50 up to about 1.1 µM and inactive = higher.

Assays:
Assay in all cases: DTP human tumour cell line panel, 48 h
[1] = tested on: NCI/ADR-RES
[2] = tested on: M14
[3] = tested on: COLO 205
[4] = tested on: SR
[5] = tested on: CAKI-1
[6] = tested on: HOP-62
[7] = tested on: CCRF-CEM
[8] = tested on: IGROV-1
[9] = tested on: SNB-19
[10] = tested on: SK-MEL-5
[11] = tested on: SK-MEL-28
[12] = tested on: SF-295
[13] = tested on: NCI-H522
[14] = tested on: A549
[15] = tested on: UO-31
[16] = tested on: PC-3
[17] = tested on: UACC-62
[18] = tested on: MDA-N
[19] = tested on: MDA-MB-231

SMILES | GI50 [1] | GI50 [2] | GI50 [3] | GI50 [4] | GI50 [5] | GI50 [6] | GI50 [7] | GI50 [8] | GI50 [9] | GI50 [10] | GI50 [11] | GI50 [12] | GI50 [13] | GI50 [14] | GI50 [15] | GI50 [16] | GI50 [17] | GI50 [18] | GI50 [19]
COc1cc(C2c3cc4c(cc3OC(NNC(N)=O)C2C)OCO4)cc(OC)c1OC (configuration not stated) | 4.72 µM (inactive) | 0.115 µM (active) | 0.0982 µM (active) | 0.0826 µM (active) | 0.634 µM (active) | 0.118 µM (active) | 0.109 µM (active) | 0.427 µM (active) | 0.452 µM (active) | 0.123 µM (active) | 1.12 µM (inactive) | 0.114 µM (active) | 0.104 µM (active) | 0.276 µM (active) | 1.07 µM (active) | 0.183 µM (active) | 0.179 µM (active) | 0.0362 µM (active) | 
O=C(O)CCCc1nc2c(n1-c1ccccc1)C(=O)c1ccccc1C2=O | > 100 µM (inactive) | 19.1 µM (inactive) | 52.5 µM (inactive) | 77.8 µM (inactive) | > 100 µM (inactive) |  | 40.7 µM (inactive) | > 100 µM (inactive) | > 100 µM (inactive) |  | > 100 µM (inactive) | 60 µM (inactive) | 14.2 µM (inactive) | > 100 µM (inactive) | > 100 µM (inactive) |  | 32.8 µM (inactive) | 43.5 µM (inactive) | 77.3 µM (inactive)
O=C1NC(=S)NC(=O)C1C(c1ccccc1[N+](=O)[O-])C1C(=O)NC(=S)NC1=O.c1ccncc1 | > 100 µM (inactive) | > 100 µM (inactive) | > 100 µM (inactive) |  | > 100 µM (inactive) | > 100 µM (inactive) | > 100 µM (inactive) |  | > 100 µM (inactive) | > 100 µM (inactive) | > 100 µM (inactive) | > 100 µM (inactive) | > 100 µM (inactive) | > 100 µM (inactive) | > 100 µM (inactive) | > 100 µM (inactive) | > 100 µM (inactive) | > 100 µM (inactive) | > 100 µM (inactive)
Cn1c(=O)c2c(nc3n2CC(=O)N3CCCCl)n(C)c1=O | > 100 µM (inactive) | > 100 µM (inactive) | > 100 µM (inactive) |  | > 100 µM (inactive) | > 100 µM (inactive) | > 100 µM (inactive) | > 100 µM (inactive) | > 100 µM (inactive) | > 100 µM (inactive) | > 100 µM (inactive) | > 100 µM (inactive) |  | > 100 µM (inactive) | > 100 µM (inactive) | > 100 µM (inactive) | > 100 µM (inactive) | > 100 µM (inactive) | > 100 µM (inactive)
[N-]=[N+]=Nc1cc(=O)n(-c2ccccc2)c(=O)n1-c1ccccc1 | > 100 µM (inactive) | > 100 µM (inactive) | > 100 µM (inactive) | > 100 µM (inactive) | > 100 µM (inactive) | > 100 µM (inactive) | > 100 µM (inactive) | > 100 µM (inactive) | > 100 µM (inactive) | > 100 µM (inactive) | > 100 µM (inactive) | > 100 µM (inactive) | > 100 µM (inactive) | > 100 µM (inactive) | > 100 µM (inactive) | > 100 µM (inactive) | 67 µM (inactive) |  | > 100 µM (inactive)
NC(=O)CCC(CCC(N)=O)(CCC(N)=O)[N+](=O)[O-] | > 100 µM (inactive) | > 100 µM (inactive) | > 100 µM (inactive) |  | > 100 µM (inactive) |  | > 10 µM (inactive) | > 100 µM (inactive) | 60.8 µM (inactive) | > 100 µM (inactive) |  | > 100 µM (inactive) | 65.9 µM (inactive) | > 100 µM (inactive) | > 100 µM (inactive) | > 100 µM (inactive) | > 100 µM (inactive) | > 100 µM (inactive) | > 100 µM (inactive)
CCN(CC)Cc1ccc(C(=S)Nc2ccc(C)cc2)s1 | 19.2 µM (inactive) | 15.1 µM (inactive) | 16 µM (inactive) | 12.1 µM (inactive) | 15 µM (inactive) | 17.5 µM (inactive) | 8.83 µM (inactive) | 10.9 µM (inactive) | 19 µM (inactive) | 13.4 µM (inactive) | 15 µM (inactive) | 13.8 µM (inactive) | 14.6 µM (inactive) | 16.6 µM (inactive) | 15.5 µM (inactive) | 14.3 µM (inactive) | 14.2 µM (inactive) |  | 
Nc1ccc(C23CC4CC(C2)CC(c2ccc(N)cc2)(C4)C3)cc1 | 56.8 µM (inactive) | 37.2 µM (inactive) | 2.3 µM (inactive) | 14.6 µM (inactive) | > 100 µM (inactive) | 60 µM (inactive) | 15.7 µM (inactive) | > 100 µM (inactive) | 37.8 µM (inactive) | 13.1 µM (inactive) | 15 µM (inactive) |  |  | > 100 µM (inactive) | 48.6 µM (inactive) |  | 29 µM (inactive) | 37.7 µM (inactive) | 1.96 µM (inactive)
COc1ccc2c(c1)CCCN1Cc3ccccc3CC21 (configuration not stated) | > 100 µM (inactive) | 39.5 µM (inactive) | 40.7 µM (inactive) |  | > 100 µM (inactive) | 40.8 µM (inactive) | 77.1 µM (inactive) | 49.4 µM (inactive) | 67.1 µM (inactive) | 22.5 µM (inactive) | 62.1 µM (inactive) | 65.9 µM (inactive) | > 100 µM (inactive) | > 100 µM (inactive) | 44.7 µM (inactive) | 78.9 µM (inactive) | 91.6 µM (inactive) | 38.2 µM (inactive) | 91.4 µM (inactive)
Cc1ccc2nc3ccccc3c(C3C4C(=O)N(c5ccc(F)cc5)C(=O)C4ON3C(C(N)=O)c3ccccc3)c2c1 (configuration not stated) | 29.2 µM (inactive) | 57 µM (inactive) | 17.5 µM (inactive) | 40.9 µM (inactive) | 24.4 µM (inactive) | 71.8 µM (inactive) | 38.5 µM (inactive) | 25.4 µM (inactive) | 57.8 µM (inactive) |  | 59 µM (inactive) | 28.8 µM (inactive) | 17.5 µM (inactive) | 29.4 µM (inactive) | 36.1 µM (inactive) | 55.2 µM (inactive) | 20.6 µM (inactive) |  | 39.8 µM (inactive)
CC1=NC(=Cc2cccc(Cl)c2)C(=O)N1n1c(-c2ccccc2)nc2ccccc2c1=O |  | 31.4 µM (inactive) | 36.1 µM (inactive) | 25.2 µM (inactive) | 22.8 µM (inactive) | 24.5 µM (inactive) | 35.6 µM (inactive) | 23.2 µM (inactive) | 59.2 µM (inactive) | 28.2 µM (inactive) | > 10 µM (inactive) | 35.7 µM (inactive) | 17.5 µM (inactive) | 35.8 µM (inactive) | 39 µM (inactive) | 31.3 µM (inactive) | 23.6 µM (inactive) | 30.4 µM (inactive) | 48.5 µM (inactive)
Nc1ncc(/C=N/O)c(NCC2(CO)CC(CCc3ccccc3)C2)n1 (configuration not stated) | 5.82 µM (inactive) |  | 10.8 µM (inactive) | 4.36 µM (inactive) | 18.4 µM (inactive) | 11.3 µM (inactive) | 14.7 µM (inactive) | 6.75 µM (inactive) |  | 0.0577 µM (active) |  | 1.02 µM (active) | 3.22 µM (inactive) | 2.48 µM (inactive) | 5.45 µM (inactive) | 13.9 µM (inactive) | 12.3 µM (inactive) |  | 9.71 µM (inactive)
CN(C)C(=O)Oc1ccc(C(=S)Nc2ccccc2)cc1Br | 20.4 µM (inactive) | 18.6 µM (inactive) | 24.2 µM (inactive) | 16.1 µM (inactive) | 63.7 µM (inactive) | 45.1 µM (inactive) | 21 µM (inactive) | 21 µM (inactive) | 74.6 µM (inactive) | 16.9 µM (inactive) | 31.8 µM (inactive) | 5.11 µM (inactive) | 14.8 µM (inactive) | 33 µM (inactive) | 33.5 µM (inactive) | 27.7 µM (inactive) | 20.3 µM (inactive) | 21.7 µM (inactive) | 
O=C1[C@@H]2C[C@@H](O)CN2C(=O)c2ccccc2N1CCCO | > 100 µM (inactive) | > 100 µM (inactive) |  |  |  | > 100 µM (inactive) |  | > 100 µM (inactive) | > 100 µM (inactive) |  | > 100 µM (inactive) | > 100 µM (inactive) | > 100 µM (inactive) | > 100 µM (inactive) | > 100 µM (inactive) | > 100 µM (inactive) | > 100 µM (inactive) | > 100 µM (inactive) | > 100 µM (inactive)
O=[N+]([O-])c1cccc2c(/N=N/c3ccc4ccccc4c3O)c(O)cc(S(=O)(=O)O)c12 | 17 µM (inactive) | 21.6 µM (inactive) |  | 2.82 µM (inactive) | 2 µM (inactive) | 18.2 µM (inactive) | 3.05 µM (inactive) | 7.29 µM (inactive) | > 100 µM (inactive) | 31 µM (inactive) | 44.3 µM (inactive) | 20.9 µM (inactive) | 7.36 µM (inactive) | 32.7 µM (inactive) | 6.03 µM (inactive) | 18.8 µM (inactive) | 7.78 µM (inactive) | 31.1 µM (inactive) | 
C[C@H](CCC1SC1(C)C)C1CCC2(C)C3=C(CC[C@]12C)[C@@]1(C)CC[C@H](O)C(C)(C)C1CC3 (some centres not stated) |  | > 100 µM (inactive) | > 100 µM (inactive) | > 100 µM (inactive) | > 100 µM (inactive) | > 100 µM (inactive) | > 100 µM (inactive) | > 100 µM (inactive) | > 100 µM (inactive) | > 100 µM (inactive) | > 100 µM (inactive) | > 100 µM (inactive) | > 100 µM (inactive) | > 100 µM (inactive) | > 100 µM (inactive) |  | > 100 µM (inactive) |  | 
